Test results taken from the kinase profiling compilation of Christmann-Franck et al. (2016).

Experiments:
Assay in all cases: KINOMEscan competition binding
Conditions in all cases: compound 10.0 µM
[1] = test system: ABL1 (human), P00519 [M351T]
ADCK4 (human) = ADCK4 (human) (UniProt Q96D53)
AKT2 (human) = AKT2 (human) (UniProt P31751)
CAMK1D (human) = CAMK1D (human) (UniProt Q8IU85)
CDK19 (human) = CDK19 (human) (UniProt Q9BWU1)
DCLK3 (human) = DCLK3 (human) (UniProt Q9C098)
EPHA3 (human) = EPHA3 (human) (UniProt P29320)
FGFR1 (human) = FGFR1 (human) (UniProt P11362)
FGFR3 (human) = FGFR3 (human) (UniProt P22607)
HCK (human) = HCK (human) (UniProt P08631)
ITK (human) = ITK (human) (UniProt Q08881)
[2] = target: JAK2 JH1 catalytic (human) (UniProt O60674)
[3] = test system: KIT (human), P10721 [D816V]
LTK (human) = LTK (human) (UniProt P29376)
MAP3K12 (human) = MAP3K12 (human) (UniProt Q12852)
MAP4K1 (human) = MAP4K1 (human) (UniProt Q92918)
MAP4K2 (human) = MAP4K2 (human) (UniProt Q12851)
MAPK15 (human) = MAPK15 (human) (UniProt Q8TD08)
MAPK8 (human) = MAPK8 (human) (UniProt P45983)
MARK4 (human) = MARK4 (human) (UniProt Q96L34)
MUSK (human) = MUSK (human) (UniProt O15146)
MYLK (human) = MYLK (human) (UniProt Q15746)
MYLK2 (human) = MYLK2 (human) (UniProt Q9H1R3)
Sequence of MYLK2 (human) (Q9H1R3 whole entry, looked up): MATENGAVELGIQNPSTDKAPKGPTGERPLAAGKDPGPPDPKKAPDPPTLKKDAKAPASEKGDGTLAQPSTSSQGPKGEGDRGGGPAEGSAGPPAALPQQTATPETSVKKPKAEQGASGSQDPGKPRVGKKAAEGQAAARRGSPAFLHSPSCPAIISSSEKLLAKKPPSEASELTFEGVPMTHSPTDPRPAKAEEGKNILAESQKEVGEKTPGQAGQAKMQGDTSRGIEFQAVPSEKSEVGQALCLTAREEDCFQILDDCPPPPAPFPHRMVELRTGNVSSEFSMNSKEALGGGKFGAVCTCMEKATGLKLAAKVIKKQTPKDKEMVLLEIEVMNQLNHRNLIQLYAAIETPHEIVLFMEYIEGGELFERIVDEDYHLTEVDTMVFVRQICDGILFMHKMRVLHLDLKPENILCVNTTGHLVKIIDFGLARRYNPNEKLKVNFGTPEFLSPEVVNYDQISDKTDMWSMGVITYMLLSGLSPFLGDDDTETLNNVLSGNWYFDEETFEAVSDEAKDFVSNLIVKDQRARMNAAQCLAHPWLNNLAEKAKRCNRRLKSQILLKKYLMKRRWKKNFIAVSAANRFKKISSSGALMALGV

NLK (human) = NLK (human) (UniProt Q9UBE8)
Sequence of NLK (human) (Q9UBE8 whole entry, looked up): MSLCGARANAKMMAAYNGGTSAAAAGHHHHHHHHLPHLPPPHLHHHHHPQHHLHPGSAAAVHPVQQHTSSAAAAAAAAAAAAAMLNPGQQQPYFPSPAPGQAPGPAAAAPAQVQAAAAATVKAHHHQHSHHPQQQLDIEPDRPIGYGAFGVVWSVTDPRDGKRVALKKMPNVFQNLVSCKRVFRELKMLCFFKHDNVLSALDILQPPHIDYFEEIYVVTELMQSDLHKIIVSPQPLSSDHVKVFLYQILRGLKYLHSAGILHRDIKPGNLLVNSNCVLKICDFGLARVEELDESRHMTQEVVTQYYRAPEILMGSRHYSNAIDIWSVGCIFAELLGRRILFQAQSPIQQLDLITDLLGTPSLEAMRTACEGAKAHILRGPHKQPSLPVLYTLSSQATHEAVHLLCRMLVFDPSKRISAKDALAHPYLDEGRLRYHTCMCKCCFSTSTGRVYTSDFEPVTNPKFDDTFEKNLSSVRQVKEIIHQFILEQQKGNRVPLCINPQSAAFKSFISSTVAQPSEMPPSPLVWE

NTRK3 (human) = NTRK3 (human) (UniProt Q16288)
PAK4 (human) = PAK4 (human) (UniProt O96013)
Sequence of PAK4 (human) (O96013 whole entry, looked up): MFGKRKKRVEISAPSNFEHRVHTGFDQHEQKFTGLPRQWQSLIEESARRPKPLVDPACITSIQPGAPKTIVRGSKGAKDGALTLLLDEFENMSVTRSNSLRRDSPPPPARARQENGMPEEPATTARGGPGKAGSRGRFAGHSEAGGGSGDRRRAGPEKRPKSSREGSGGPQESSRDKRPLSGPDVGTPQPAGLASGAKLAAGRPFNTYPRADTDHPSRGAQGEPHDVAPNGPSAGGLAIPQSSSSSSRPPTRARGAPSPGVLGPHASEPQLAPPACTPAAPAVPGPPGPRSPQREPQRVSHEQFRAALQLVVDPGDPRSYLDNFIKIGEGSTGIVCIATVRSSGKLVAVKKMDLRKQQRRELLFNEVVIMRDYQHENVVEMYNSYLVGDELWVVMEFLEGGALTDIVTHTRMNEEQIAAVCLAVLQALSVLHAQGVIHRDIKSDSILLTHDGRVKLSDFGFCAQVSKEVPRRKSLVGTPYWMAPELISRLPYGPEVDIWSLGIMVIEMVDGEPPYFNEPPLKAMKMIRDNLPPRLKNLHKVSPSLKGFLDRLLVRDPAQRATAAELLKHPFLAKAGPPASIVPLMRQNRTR

PHKG1 (human) = PHKG1 (human) (UniProt Q16816)
PRKCH (human) = PRKCH (human) (UniProt P24723)
PRKG1 (human) = PRKG1 (human) (UniProt Q13976)
Sequence of PRKG1 (human) (Q13976 whole entry, looked up): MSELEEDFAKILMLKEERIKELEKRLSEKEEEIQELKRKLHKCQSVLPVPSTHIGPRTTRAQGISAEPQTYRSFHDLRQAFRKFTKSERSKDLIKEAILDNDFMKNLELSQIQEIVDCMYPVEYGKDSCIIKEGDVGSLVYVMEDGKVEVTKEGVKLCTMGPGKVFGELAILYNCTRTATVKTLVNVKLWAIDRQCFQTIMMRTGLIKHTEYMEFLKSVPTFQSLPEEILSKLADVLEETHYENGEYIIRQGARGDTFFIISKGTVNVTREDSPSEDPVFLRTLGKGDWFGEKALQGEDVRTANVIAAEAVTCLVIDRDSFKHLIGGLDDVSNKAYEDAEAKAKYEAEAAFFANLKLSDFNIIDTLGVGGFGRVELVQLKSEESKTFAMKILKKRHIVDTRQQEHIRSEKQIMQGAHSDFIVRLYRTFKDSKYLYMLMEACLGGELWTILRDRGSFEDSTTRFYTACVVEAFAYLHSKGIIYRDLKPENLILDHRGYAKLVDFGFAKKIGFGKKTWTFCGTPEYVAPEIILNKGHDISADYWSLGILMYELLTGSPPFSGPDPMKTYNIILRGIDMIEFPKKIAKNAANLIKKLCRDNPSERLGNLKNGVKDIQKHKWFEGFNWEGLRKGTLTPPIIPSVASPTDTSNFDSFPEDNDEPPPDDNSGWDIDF

PRKG2 (human) = PRKG2 (human) (UniProt Q13237)
PTK2B (human) = PTK2B (human) (UniProt Q14289)
RPS6KA5 KD1 (human) = RPS6KA5 KD1 (human) (UniProt O75582)
SIK1 (human) = SIK1 (human) (UniProt P57059)
SRPK2 (human) = SRPK2 (human) (UniProt P78362)
STK32B (human) = STK32B (human) (UniProt Q9NY57)
TAOK3 (human) = TAOK3 (human) (UniProt Q9H2K8)
Sequence of TAOK3 (human) (Q9H2K8 whole entry, looked up): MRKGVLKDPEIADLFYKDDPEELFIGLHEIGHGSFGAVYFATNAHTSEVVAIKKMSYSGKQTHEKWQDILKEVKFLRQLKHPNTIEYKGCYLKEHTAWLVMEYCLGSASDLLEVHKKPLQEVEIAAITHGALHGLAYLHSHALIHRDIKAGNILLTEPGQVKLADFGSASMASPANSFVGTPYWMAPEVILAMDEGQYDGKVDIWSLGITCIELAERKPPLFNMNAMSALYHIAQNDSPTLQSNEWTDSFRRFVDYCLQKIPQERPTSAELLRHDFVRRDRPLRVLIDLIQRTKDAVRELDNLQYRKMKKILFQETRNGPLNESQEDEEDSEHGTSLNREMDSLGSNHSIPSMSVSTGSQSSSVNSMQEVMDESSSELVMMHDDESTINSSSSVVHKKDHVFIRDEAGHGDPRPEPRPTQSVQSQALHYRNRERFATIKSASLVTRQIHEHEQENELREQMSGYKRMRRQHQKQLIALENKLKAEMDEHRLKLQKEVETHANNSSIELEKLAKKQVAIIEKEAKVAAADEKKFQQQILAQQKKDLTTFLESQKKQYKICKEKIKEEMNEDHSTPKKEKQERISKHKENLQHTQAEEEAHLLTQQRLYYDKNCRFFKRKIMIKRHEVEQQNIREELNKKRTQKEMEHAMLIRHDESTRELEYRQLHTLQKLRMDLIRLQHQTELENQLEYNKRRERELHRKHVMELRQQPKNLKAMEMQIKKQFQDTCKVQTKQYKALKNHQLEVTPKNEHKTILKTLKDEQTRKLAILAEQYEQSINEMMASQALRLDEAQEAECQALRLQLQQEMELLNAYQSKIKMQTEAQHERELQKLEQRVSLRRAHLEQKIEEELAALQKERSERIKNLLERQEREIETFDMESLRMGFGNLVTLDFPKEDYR

TEC (human) = TEC (human) (UniProt P42680)
Sequence of TEC (human) (P42680 whole entry, looked up): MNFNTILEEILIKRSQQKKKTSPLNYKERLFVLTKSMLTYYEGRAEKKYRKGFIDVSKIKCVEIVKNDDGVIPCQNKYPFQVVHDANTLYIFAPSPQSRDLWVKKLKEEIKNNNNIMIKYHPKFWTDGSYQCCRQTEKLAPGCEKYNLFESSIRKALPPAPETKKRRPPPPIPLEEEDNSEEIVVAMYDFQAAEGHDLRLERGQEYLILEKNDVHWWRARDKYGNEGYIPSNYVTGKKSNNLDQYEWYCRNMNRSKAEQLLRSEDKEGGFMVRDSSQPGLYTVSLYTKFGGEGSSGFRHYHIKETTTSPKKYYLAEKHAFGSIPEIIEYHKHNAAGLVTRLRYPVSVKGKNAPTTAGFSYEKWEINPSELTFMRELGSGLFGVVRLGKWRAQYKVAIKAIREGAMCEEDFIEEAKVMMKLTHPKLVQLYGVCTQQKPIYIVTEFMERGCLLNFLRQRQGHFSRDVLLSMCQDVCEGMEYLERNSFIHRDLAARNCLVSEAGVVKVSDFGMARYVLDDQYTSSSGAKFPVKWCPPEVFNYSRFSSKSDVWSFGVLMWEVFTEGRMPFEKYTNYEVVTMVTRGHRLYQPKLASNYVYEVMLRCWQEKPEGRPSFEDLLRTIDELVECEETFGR

TESK1 (human) = TESK1 (human) (UniProt Q15569)
TNK1 (human) = TNK1 (human) (UniProt Q13470)
Sequence of TNK1 (human) (Q13470 whole entry, looked up): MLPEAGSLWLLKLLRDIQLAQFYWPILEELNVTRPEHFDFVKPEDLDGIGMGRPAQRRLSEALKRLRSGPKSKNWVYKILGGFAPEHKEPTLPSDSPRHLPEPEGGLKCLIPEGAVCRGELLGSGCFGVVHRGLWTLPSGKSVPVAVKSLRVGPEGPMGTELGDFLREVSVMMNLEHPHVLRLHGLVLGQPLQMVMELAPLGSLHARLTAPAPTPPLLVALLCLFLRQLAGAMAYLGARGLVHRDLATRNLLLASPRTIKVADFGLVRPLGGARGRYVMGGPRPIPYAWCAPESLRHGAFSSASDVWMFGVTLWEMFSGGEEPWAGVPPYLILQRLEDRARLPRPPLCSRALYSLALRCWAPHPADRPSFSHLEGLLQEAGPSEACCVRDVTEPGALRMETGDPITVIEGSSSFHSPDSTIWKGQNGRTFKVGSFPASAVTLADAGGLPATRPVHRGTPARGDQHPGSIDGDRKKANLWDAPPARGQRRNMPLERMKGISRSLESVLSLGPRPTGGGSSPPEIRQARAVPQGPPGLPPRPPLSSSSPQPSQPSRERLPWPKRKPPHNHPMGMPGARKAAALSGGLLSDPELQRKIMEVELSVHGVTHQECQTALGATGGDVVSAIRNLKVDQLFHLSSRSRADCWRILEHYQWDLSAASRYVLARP

[4] = target: TYK2 JH1 catalytic (human) (UniProt P29597)

Sequence of CAMK1D (human) (Q8IU85 whole entry, looked up): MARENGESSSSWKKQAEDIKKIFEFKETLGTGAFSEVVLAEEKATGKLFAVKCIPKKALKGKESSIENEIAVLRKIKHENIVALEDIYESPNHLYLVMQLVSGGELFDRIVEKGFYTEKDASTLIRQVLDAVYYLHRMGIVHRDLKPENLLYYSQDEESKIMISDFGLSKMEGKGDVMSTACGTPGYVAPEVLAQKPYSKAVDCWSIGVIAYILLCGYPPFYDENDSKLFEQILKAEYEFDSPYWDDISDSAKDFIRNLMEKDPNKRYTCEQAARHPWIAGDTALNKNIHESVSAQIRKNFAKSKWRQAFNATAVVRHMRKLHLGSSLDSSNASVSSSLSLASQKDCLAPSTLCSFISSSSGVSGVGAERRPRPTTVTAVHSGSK

Row | Compound | kinase still bound, per cent of control [1] [%] | kinase still bound, per cent of control (ADCK4 (human)) [%] | kinase still bound, per cent of control (AKT2 (human)) [%] | kinase still bound, per cent of control (CAMK1D (human)) [%] | kinase still bound, per cent of control (CDK19 (human)) [%] | kinase still bound, per cent of control (DCLK3 (human)) [%] | kinase still bound, per cent of control (EPHA3 (human)) [%] | kinase still bound, per cent of control (FGFR1 (human)) [%] | kinase still bound, per cent of control (FGFR3 (human)) [%] | kinase still bound, per cent of control (HCK (human)) [%] | kinase still bound, per cent of control (ITK (human)) [%] | kinase still bound, per cent of control [2] [%] | kinase still bound, per cent of control [3] [%] | kinase still bound, per cent of control (LTK (human)) [%] | kinase still bound, per cent of control (MAP3K12 (human)) [%] | kinase still bound, per cent of control (MAP4K1 (human)) [%] | kinase still bound, per cent of control (MAP4K2 (human)) [%] | kinase still bound, per cent of control (MAPK15 (human)) [%] | kinase still bound, per cent of control (MAPK8 (human)) [%] | kinase still bound, per cent of control (MARK4 (human)) [%] | also measured
1 | O=C1Nc2ccc(I)cc2/C1=C/c1cc(Br)c(O)c(Br)c1 | 77 | 65 | 90 | 76 | 63 | 100 | 66 | 77 | 84 | 81 | 96 | 57 | 79 | 47 | 80 | 71 | 68 | 61 | 86 | 100 | kinase still bound, per cent of control (MUSK (human)): 74%; kinase still bound, per cent of control (MYLK (human)): 16%; kinase still bound, per cent of control (MYLK2 (human)): 85%; kinase still bound, per cent of control (NLK (human)): 56%; kinase still bound, per cent of control (NTRK3 (human)): 35%; kinase still bound, per cent of control (PAK4 (human)): 82%; kinase still bound, per cent of control (PHKG1 (human)): 85%; kinase still bound, per cent of control (PRKCH (human)): 100%; kinase still bound, per cent of control (PRKG1 (human)): 100%; kinase still bound, per cent of control (PRKG2 (human)): 83%; kinase still bound, per cent of control (PTK2B (human)): 81%; kinase still bound, per cent of control (RPS6KA5 KD1 (human)): 96%; kinase still bound, per cent of control (SIK1 (human)): 83%; kinase still bound, per cent of control (SRPK2 (human)): 87%; kinase still bound, per cent of control (STK32B (human)): 100%; kinase still bound, per cent of control (TAOK3 (human)): 87%; kinase still bound, per cent of control (TEC (human)): 100%; kinase still bound, per cent of control (TESK1 (human)): 100%; kinase still bound, per cent of control (TNK1 (human)): 100%; kinase still bound, per cent of control [4]: 8.2%
2 | CN(C)C/C=C/C(=O)Nc1cccc(Nc2ncc3c(n2)N(C)c2ccccc2C(=O)N3C)c1 | 0.75 | 100 | 99 | 59 | 100 | 0.5 | 43 | 3.5 | 12 | 13 | 58 | 0.75 | 7.4 | 100 | 38 | 38 | 13 | 100 | 91 | 1.5 | kinase still bound, per cent of control (MUSK (human)): 100%; kinase still bound, per cent of control (MYLK (human)): 69%; kinase still bound, per cent of control (MYLK2 (human)): 46%; kinase still bound, per cent of control (NLK (human)): 36%; kinase still bound, per cent of control (NTRK3 (human)): 16%; kinase still bound, per cent of control (PAK4 (human)): 61%; kinase still bound, per cent of control (PHKG1 (human)): 69%; kinase still bound, per cent of control (PRKCH (human)): 100%; kinase still bound, per cent of control (PRKG1 (human)): 100%; kinase still bound, per cent of control (PRKG2 (human)): 81%; kinase still bound, per cent of control (PTK2B (human)): 74%; kinase still bound, per cent of control (RPS6KA5 KD1 (human)): 100%; kinase still bound, per cent of control (SIK1 (human)): 2.7%; kinase still bound, per cent of control (SRPK2 (human)): 100%; kinase still bound, per cent of control (STK32B (human)): 100%; kinase still bound, per cent of control (TAOK3 (human)): 0%; kinase still bound, per cent of control (TEC (human)): 97%; kinase still bound, per cent of control (TESK1 (human)): 100%; kinase still bound, per cent of control (TNK1 (human)): 0.4%; kinase still bound, per cent of control [4]: 5%
3 | N#Cc1c(NC(=O)c2cccc3ccccc23)sc2c1CCCC2 | 98 | 100 | 100 | 85 | 88 | 100 | 100 | 99 | 100 | 92 | 89 | 100 | 97 | 90 | 79 | 89 | 100 | 64 | 60 | 97 | kinase still bound, per cent of control (MUSK (human)): 97%; kinase still bound, per cent of control (MYLK (human)): 99%; kinase still bound, per cent of control (MYLK2 (human)): 100%; kinase still bound, per cent of control (NLK (human)): 65%; kinase still bound, per cent of control (NTRK3 (human)): 86%; kinase still bound, per cent of control (PAK4 (human)): 100%; kinase still bound, per cent of control (PHKG1 (human)): 100%; kinase still bound, per cent of control (PRKCH (human)): 87%; kinase still bound, per cent of control (PRKG1 (human)): 88%; kinase still bound, per cent of control (PRKG2 (human)): 86%; kinase still bound, per cent of control (PTK2B (human)): 79%; kinase still bound, per cent of control (RPS6KA5 KD1 (human)): 85%; kinase still bound, per cent of control (SIK1 (human)): 92%; kinase still bound, per cent of control (SRPK2 (human)): 100%; kinase still bound, per cent of control (STK32B (human)): 83%; kinase still bound, per cent of control (TAOK3 (human)): 87%; kinase still bound, per cent of control (TEC (human)): 91%; kinase still bound, per cent of control (TESK1 (human)): 83%; kinase still bound, per cent of control (TNK1 (human)): 74%; kinase still bound, per cent of control [4]: 100%
